We go through 16 compounds from US7192974B2, “Hydroxymethyl substituted dihydroisoxazole derivatives useful as antibiotic agents” (AstraZeneca AB, priority 2003, dated 2007).

Counter-ions that a name gives are not always drawn.

What is called melting point is the temperature, or range, at which the solid turns liquid. `C[N+](C)(C)CCOC(=O)OC[C@@H]1CC(c2ccc(-c3ccc(N4C[C@H](Cn5ccnn5)OC4=O)cc3F)cn2)=NO1` (as salt: chloride) [Example 32, 2-[({[(5S)-3-(5-{2-fluoro-4-[(5R)-2-oxo-5-(1H-1,2,3-triazol-1-ylmethyl)-1,3-oxazolidin-3-yl]phenyl}pyridin-2-yl)-4,5-dihydrolsoxazol-5-yl]methoxy}carbonyl)oxy]-N,N,N-trimethylethanaminium chloride]: the melting point lay in the range of 180 to 190 °C.

`NCCC(=O)OC[C@@H]1CC(c2ccc(-c3ccc(N4C[C@H](Cn5ccnn5)OC4=O)cc3F)cn2)=NO1` (as salt: hydrochloride) [Example 8, [(5S)-3-(5-{2-Fluoro-4-[(5R)-2-oxo-5-(1H-1,2,3-triazol-1-ylmethyl)-1,3-oxazolidin-3-yl]phenyl}pyridin-2-yl)-4,5-dihydroisoxazol-5-yl]methyl β-alaninate] displayed a melting point of 68 to 75 °C.

`CN(C)CC(=O)OCC1CC(c2ccc(-c3ccc(N4C[C@H](Cn5ccnn5)OC4=O)cc3F)cn2)=NO1` (stereo partly drawn) (as salt: hydrochloride) [Example 26, [3-(5-{2-fluoro-4-[(5R)-2-oxo-5-(1H-1,2,3-triazol-1-ylmethyl)-1,3-oxazolidin-3-yl]phenyl}pyridin-2-yl)-4,5-dihydroisoxazol-5-yl]methyl N,N-dimethylglycinate] came in with a melting point of 175 to 180 °C.

On to `CNCCCCC(=O)OC[C@@H]1CC(c2ccc(-c3ccc(N4C[C@H](Cn5ccnn5)OC4=O)cc3F)cn2)=NO1` (as salt: hydrochloride) [Example 37, [(5S)-3-(5-{2-fluoro-4-[(5R)-2-oxo-5-(1H-1,2,3-triazol-1-ylmethyl)-1,3-oxazolidin-3-yl]phenyl}pyridin-2-yl)-4,5-dihydroisoxazol-5-yl]methyl 5-(methylamino)pentanoate], for which the melting point amounted to 184 °C.

For the compound `CN(C)CC(=O)N(C)CCCCC(=O)OC[C@@H]1CC(c2ccc(-c3ccc(N4C[C@H](Cn5ccnn5)OC4=O)cc3F)cn2)=NO1` (as salt: hydrochloride) [Example 38, [(5S)-3-(5-{2-fluoro-4-[(5R)-2-oxo-5-(1H-1,2,3-triazol-1-ylmethyl)-1,3-oxazolidin-3-yl]phenyl}pyridin-2-yl)-4,5-dihydroisoxazol-5-yl]methyl 5-[(N,N-dimethylglycyl)(methyl)amino]pentanoate], the melting point came to 133 °C.

Regarding `CCOC(=O)CCCCC(=O)OC[C@@H]1CC(c2ccc(-c3ccc(N4C[C@H](Cn5ccnn5)OC4=O)cc3F)cn2)=NO1` [Example 6, Ethyl [(5S)-3-(5-{2-fluoro-4-[(5R)-2-oxo-5-(1H-1,2,3-triazol-1-ylmethyl)-1,3oxazolidin-3-yl]phenyl}pyridin-2-yl)-4,5-dihydroisoxazol-5-yl]methyl hexanedioate], the melting point came to 88 °C.

For the compound `CN(C)CCCC(=O)OC[C@@H]1CC(c2ccc(-c3ccc(N4C[C@H](Cn5ccnn5)OC4=O)cc3F)cn2)=NO1` [Example 9, [(5S)-3-(5-{2-Fluoro-4-[(5R)-2-oxo-5-(1H-1,2,3-triazol-1-ylmethyl)-1,3-oxazolidin-3-yl]phenyl}pyridin-2-yl)-4,5-dihydroisoxazol-5-yl]methyl 4-(dimethylamino)butanoate], the melting point was 148 °C.

Compound `COC(=O)NCCCCC(=O)OC[C@@H]1CC(c2ccc(-c3ccc(N4C[C@H](Cn5ccnn5)OC4=O)cc3F)cn2)=NO1` [Example 10, [(5S)-3-(5-{2-Fluoro-4-[(5R)-2-oxo-5-(1H-1,2,3-triazol-1-ylmethyl)-1,3-oxazolidin-3-yl]phenyl}pyridin-2-yl)-4,5-dihydroisoxazol-5-yl]methyl 5-[(methoxycarbonyl)amino]pentanoate] registered a melting point of 90 °C.

With `CCN(CC)CCC(=O)OC[C@@H]1CC(c2ccc(-c3ccc(N4C[C@H](Cn5ccnn5)OC4=O)cc3F)cn2)=NO1` [Example 11, [(5S)-3-(5-{2-Fluoro-4-[(5R)-2-oxo-5-(1H-1,2,3-triazol-1-ylmethyl)-1,3-oxazolidin-3-yl]phenyl}pyridin-2-yl)-4,5-dihydroisoxazol-5-yl]methyl N,N-diethyl-β-alaninate], the melting point turned out to be 167 °C.

As to `COCC(=O)OC[C@@H]1CC(c2ccc(-c3ccc(N4C[C@H](Cn5ccnn5)OC4=O)cc3F)cn2)=NO1` [Example 12, [(5S)-3-(5-{2-Fluoro-4-[(5R)-2-oxo-5-(1H-1,2,3-triazol-1-ylmethyl)-1,3-oxazolidin-3-yl]phenyl}pyridin-2-yl)-4,5-dihydroisoxazol-5-yl]methyl methoxyacetate], the melting point stood at 170 °C.

As to `COCCC(=O)OC[C@@H]1CC(c2ccc(-c3ccc(N4C[C@H](Cn5ccnn5)OC4=O)cc3F)cn2)=NO1` [Example 13, [(5S)-3-(5-{2-Fluoro-4-[(5R)-2-oxo-5-(1H-1,2,3-triazol-1-ylmethyl)-1,3-oxazolidin-3-yl]phenyl}pyridin-2-yl)-4,5-dihydroisoxazol-5-yl]methyl 3-methoxypropanoate], the melting point was 149 °C.

`COC(=O)OC[C@@H]1CC(c2ccc(-c3ccc(N4C[C@H](Cn5ccnn5)OC4=O)cc3F)cn2)=NO1` [Example 14, [(5S)-3-(5-{2-Fluoro-4-[(5R)-2-oxo-5-(1H-1,2,3-triazol-1-ylmethyl)-1,3-oxazolidin-3-yl]phenyl}pyridin-2-yl)-4,5-dihydroisoxazol-5-yl]methyl methyl carbonate] displayed a melting point of 205 °C.

`COCCOC(=O)OC[C@@H]1CC(c2ccc(-c3ccc(N4C[C@H](Cn5ccnn5)OC4=O)cc3F)cn2)=NO1` [Example 15, [(5S)-3-(5-{2-Fluoro-4-[(5R)-2-oxo-5-(1H-1,2,3-triazol-1-ylmethyl)-1,3-oxazolidin-3-yl]phenyl}pyridin-2-yl)-4,5-dihydroisoxazol-5-yl]methyl 2-methoxyethyl carbonate] displayed a melting point of 112 °C.

`COCCCC(=O)OC[C@@H]1CC(c2ccc(-c3ccc(N4C[C@H](Cn5ccnn5)OC4=O)cc3F)cn2)=NO1` [Example 17, [(5S)-3-(5-{2-Fluoro-4-[(5R)-2-oxo-5-(1H-1,2,3-triazol-1-ylmethyl)-1,3-oxazolidin-3-yl]phenyl}pyridin-2-yl)-4,5-dihydroisoxazol-5-yl]methyl 4-methoxybutanoate]: the melting point was found to be 154 °C.

The compound `O=C(OC[C@@H]1CC(c2ccc(-c3ccc(N4C[C@H](Cn5ccnn5)OC4=O)cc3F)cn2)=NO1)c1ccc[n+]([O-])c1` [Example 25, [(5S)-3-(5-{2-fluoro-4-[(5R)-2-oxo-5-(1H-1,2,3-triazol-1-ylmethyl)-1,3-oxazolidin-3-yl]phenyl}pyridin-2-yl)-4,5-dihydroisoxazol-5-yl]methyl nicotinate 1-oxide] returned a melting point of 255 °C.

On to `CCOC(=O)NCCCCC(=O)OCC1CC(c2ccc(-c3ccc(N4C[C@H](Cn5ccnn5)OC4=O)cc3F)cn2)=NO1` (stereo partly drawn) [Example 27, [(5S)-3-(5-{2-fluoro-4-[(5R)-2-oxo-5-(1H-1,23-triazol-1-ylmethyl)-1,3-oxazolidin-3-yl]phenyl}pyridin-2-yl)-4,5-dihydroisoxazol-5-yl]methyl 5-[(ethoxycarbonyl)amino]pentanoate], for which the melting point was 183 °C.
